Results from PubChem BioAssay (NCI).
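Test compounds were applied to cells in 96-well plates for 48 hours at 5 doses. GI50 marks 50% less growth. TGI marks complete inhibition of growth.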

Legend:
Experiment in all cases: NCI-60 cell line screen, 48 h
SK-OV-3 ovarian = tested on: SK-OV-3 ovarian
HCC-2998 colon = tested on: HCC-2998 colon
LOX IMVI melanoma = tested on: LOX IMVI melanoma
HCT-116 colon = tested on: HCT-116 colon
SR leukemia = tested on: SR leukemia
U251 CNS = tested on: U251 CNS
BT-549 breast = tested on: BT-549 breast
DU-145 prostate = tested on: DU-145 prostate
RXF 393 renal = tested on: RXF 393 renal
UACC-62 melanoma = tested on: UACC-62 melanoma
SK-MEL-5 melanoma = tested on: SK-MEL-5 melanoma
NCI-H522 lung = tested on: NCI-H522 lung
CCRF-CEM leukemia = tested on: CCRF-CEM leukemia
UO-31 renal = tested on: UO-31 renal
NCI-H460 lung = tested on: NCI-H460 lung
K-562 leukemia = tested on: K-562 leukemia
HCT-15 colon = tested on: HCT-15 colon
SK-MEL-28 melanoma = tested on: SK-MEL-28 melanoma
ACHN renal = tested on: ACHN renal
SN12C renal = tested on: SN12C renal
SNB-19 CNS = tested on: SNB-19 CNS
UACC-257 melanoma = tested on: UACC-257 melanoma
OVCAR-3 ovarian = tested on: OVCAR-3 ovarian
MDA-MB-231 breast = tested on: MDA-MB-231 breast
KM12 colon = tested on: KM12 colon
IGROV1 ovarian = tested on: IGROV1 ovarian
RPMI-8226 leukemia = tested on: RPMI-8226 leukemia
TK-10 renal = tested on: TK-10 renal
OVCAR-8 ovarian = tested on: OVCAR-8 ovarian

CCO/C=N/C1=C(C#N)C(c2ccc(Cl)cc2)c2sc3c(C)cccc3c2O1 (stereo not drawn)
GI50 (SK-OV-3 ovarian): 2.7 µM
TGI (SK-OV-3 ovarian): 22.1 µM
GI50 (HCC-2998 colon): 1.51 µM
TGI (HCC-2998 colon): 8.52 µM
GI50 (LOX IMVI melanoma): 0.611 µM
TGI (LOX IMVI melanoma): 13 µM
GI50 (HCT-116 colon): 0.448 µM
TGI (HCT-116 colon): 11.1 µM
GI50 (SR leukemia): 0.542 µM
TGI (SR leukemia): > 47.2 µM
GI50 (U251 CNS): 0.609 µM
TGI (U251 CNS): 12.7 µM
GI50 (BT-549 breast): 1.83 µM
TGI (BT-549 breast): 11.4 µM
GI50 (DU-145 prostate): 0.758 µM
TGI (DU-145 prostate): 14.4 µM
GI50 (RXF 393 renal): 0.275 µM
TGI (RXF 393 renal): 1.33 µM
GI50 (UACC-62 melanoma): 0.447 µM
TGI (UACC-62 melanoma): 14.8 µM
GI50 (SK-MEL-5 melanoma): 0.845 µM
TGI (SK-MEL-5 melanoma): 10.4 µM
GI50 (NCI-H522 lung): 0.398 µM
TGI (NCI-H522 lung): 5.05 µM
GI50 (CCRF-CEM leukemia): 0.371 µM
TGI (CCRF-CEM leukemia): 19.4 µM
GI50 (UO-31 renal): 0.562 µM
TGI (UO-31 renal): 17.1 µM
GI50 (NCI-H460 lung): 0.406 µM
TGI (NCI-H460 lung): 7.66 µM
GI50 (K-562 leukemia): 0.379 µM
TGI (K-562 leukemia): > 51.3 µM
GI50 (HCT-15 colon): 0.423 µM
TGI (HCT-15 colon): 10.2 µM
GI50 (SK-MEL-28 melanoma): 2.48 µM
TGI (SK-MEL-28 melanoma): 22.4 µM
GI50 (ACHN renal): 0.631 µM
TGI (ACHN renal): 15.1 µM
GI50 (SN12C renal): 0.865 µM
TGI (SN12C renal): 12.6 µM
GI50 (SNB-19 CNS): 0.566 µM
TGI (SNB-19 CNS): 16.3 µM
GI50 (UACC-257 melanoma): 12.1 µM
TGI (UACC-257 melanoma): 32.1 µM
GI50 (OVCAR-3 ovarian): 0.409 µM
TGI (OVCAR-3 ovarian): 7.85 µM
GI50 (MDA-MB-231 breast): 2.19 µM
TGI (MDA-MB-231 breast): 15.4 µM
GI50 (KM12 colon): 0.551 µM
TGI (KM12 colon): 15.7 µM
GI50 (IGROV1 ovarian): 0.517 µM
TGI (IGROV1 ovarian): 15 µM
GI50 (RPMI-8226 leukemia): 0.408 µM
TGI (RPMI-8226 leukemia): 15.8 µM
GI50 (TK-10 renal): 9.74 µM
TGI (TK-10 renal): 30 µM
GI50 (OVCAR-8 ovarian): 1.19 µM
TGI (OVCAR-8 ovarian): 15.9 µM
